{"source": "paper PMC7578299", "about": "“The antiviral effects of baloxavir marboxil against influenza A virus infection in ferrets” (Influenza and Other Respiratory Viruses, 2020)", "key": {"[1]": {"system": "Influenza A virus A/Kadoma/3/2006 (H1N1)", "test": "Experiment 2: infected ferrets, treatment starting at Day 2 p.i. (virus titer in nasal washes, body temperature)", "conditions": "treatment from Day 2 p.i.; BXM 10 mg/kg twice daily 1 day"}, "influenza virus": {"system": "influenza virus", "parameters": "method as in PMID 30288682", "conditions": "patients, cited from earlier work"}, "[2]": {"test": "Metabolic stability in liver microsomes, monkey", "format": "in vitro ADME", "conditions": "monkey; for % Residual in liver microsome: 0.5 mg/mL, 2 μmol/L, 37°C, mean of duplicates; for % Residual in liver microsome Individual value: duplicates", "method": "(§1) Liver microsomes were prepared from ferrets, rats, dogs, and monkeys, as previously described. ^28 Human liver microsomes were obtained from Sekisui‐XenoTech, LLC and pooled (n = 15). Metabolic stability of the compounds in liver microsomes was tested in duplicate. Oseltamivir and cefcapene pivoxil were used as reference compounds. Liver microsomes at 0.5 mg/mL concentration (final volume of 0.2 mL) were incubated in Tris‐HCl buffer (pH 7.4), containing 50 mmol/L Tris‐HCl, 150 mmol/L KCl, 10 mmol/L MgCl2. The hydrolysis reaction was initiated by applying the test compound solution (final concentration 2 μmol/L). After incubation for 10, 20, and 30 minutes at 37°C, the hydrolysis was terminated by the addition of twofold volume of ice‐cold acetonitrile/methanol (1:1, v/v). Samples were centrifuged at 3000 rpm for 10 minutes prior to LC‐MS/MS analysis of compounds in the supernatants."}, "[3]": {"test": "Metabolic stability test, control (microsome free)", "format": "in vitro ADME", "conditions": "microsome free; for % Residual, Control (Microsome free): 2 μmol/L, 37°C, mean of duplicates; for % Residual Individual value, Control (Microsome free): duplicates", "method": "as §1"}}, "note": "“And” between values parts separate entries of the source, which are not always exact repeats. Equal entries are not always repeated."}
{"smiles": "COC(=O)OCOc1c2n(ccc1=O)N([C@@H]1c3ccccc3SCc3c1ccc(F)c3F)[C@@H]1COCCN1C2=O", "note": "[BXM, Baloxavir marboxil]", "values": [{"measurement": "body temperature changes over time (in words)", "setting": "[1]", "value": "a small but significant effect was observed with BXM compared with vehicle on Day 2"}, {"measurement": "time within which infectious virus titers declined", "setting": "influenza virus; single weight-based oral dose 40 or 80 mg", "value": "≤ 1", "unit": "days"}, {"measurement": "time to alleviation of symptoms (in words)", "setting": "influenza virus; vs placebo and OSP", "value": "superior compared with placebo but not significantly different from the effect of OSP treatment"}, {"measurement": "% Residual in liver microsome", "setting": "[2]; 10 min", "value": 0.0, "unit": "%"}, {"measurement": "% Residual in liver microsome", "setting": "[2]; 20 min", "value": 0.0, "unit": "%"}, {"measurement": "% Residual in liver microsome", "setting": "[2]; 30 min", "value": 0.0, "unit": "%"}, {"measurement": "% Residual in liver microsome Individual value", "setting": "[2]; 10 minutes", "value": 0.0, "unit": "%"}, {"measurement": "% Residual in liver microsome Individual value", "setting": "[2]; 20 minutes", "value": 0.0, "unit": "%"}, {"measurement": "% Residual in liver microsome Individual value", "setting": "[2]; 30 minutes", "value": 0.0, "unit": "%"}, {"measurement": "% Residual, Control (Microsome free)", "setting": "[3]; 10 min", "value": 81.3, "unit": "%"}, {"measurement": "% Residual, Control (Microsome free)", "setting": "[3]; 20 min", "value": 81.7, "unit": "%"}, {"measurement": "% Residual, Control (Microsome free)", "setting": "[3]; 30 min", "value": 92.1, "unit": "%"}, {"measurement": "% Residual Individual value, Control (Microsome free)", "setting": "[3]; 10 minutes", "value": "72.2% and 90.3%"}, {"measurement": "% Residual Individual value, Control (Microsome free)", "setting": "[3]; 20 minutes", "value": "81.2% and 82.1%"}, {"measurement": "% Residual Individual value, Control (Microsome free)", "setting": "[3]; 30 minutes", "value": "86.1% and 98.1%"}]}
